Columns and labels:
LNCaP-JAK1 cells = experiment: Immunoblot of NS3 in infected LNCaP-JAK1 cells; conditions: for effect of treatment on NS3 expression in EHDV-TAU-LNCaP-infected cells: LNCaP-JAK1, Baricitinib 0.5 μM, IFNα 200 U/ml, IFNγ 25 ng/ml, prior to and during infection
LNCaP cells = experiment: Trypan blue exclusion assay of infected LNCaP cells; assay type: cell-based, human; conditions: for effect of inhibitor on EHDV-TAU-LNCaP-induced cell death: Q-VD-OPH 20 μM, Necrostatin-1 75 μM, 45 hours
Description: LNCaP cells were infected (+) or not (−) with EHDV-TAU-LNCaP (0.05 PFU/cell, for 45 hours) and treated (+) or not (−) with Q-VD-OPH (20 μM, for 45 hours during infection, or 20 hours during STS treatment), Necrostatin-1 (75 μM, for 45 hours) or staurosporine (STS, 1 μM, for 20 hours; serves as positive control of apoptosis induction). Graph depicts mean±SE (n=3) of the percentage of cell death under the indicated conditions. *p<0.05; **p<0.005.
LNCaP cells were infected or not with EHDV-TAU-LNCaP (0.05 PFU/cell, for 45 hours) and treated, or not, with IFNα or the indicated EpMs. Graph depicts mean±SE (n=5) of percentage of cell death under the indicated conditions; *p<0.05; ***p<0.0005.
Trypan blue exclusion assay—2×10^5 LNCaP cells/well in a 12-well plate were infected, or not, under the indicated experimental conditions. For each well, detached and attached cells were collected together and mixed with 0.5% trypan blue at a 1:1 ratio. Cells were classified by trypan blue exclusion by light microscopy. Trypan blue (0.5%) was from Beit Haemek Biological Industries, Israel (cat. #03-102-1B).

Molecule: IL-6: Human IL-6 (PeproTech), pleiotropic cytokine
- effect on productive EHDV-TAU-LNCaP infection (LNCaP-JAK1 cells; LNCaP-JAK1, IL-6): reduce productive EHDV-TAU-LNCaP infection

Molecule: CN1C(=O)C(Cc2c[nH]c3ccccc23)NC1=S (stereo not shown) [Necrostatin-1]
- effect of inhibitor on EHDV-TAU-LNCaP-induced cell death (LNCaP cells): partial reduction

Molecule: COC(=O)CC(NC(=O)C(NC(=O)c1ccc2ccccc2n1)C(C)C)C(=O)COc1c(F)cccc1F (stereo not shown) [Q-VD-OPh, Quinolyl-valyl-O-methylaspartyl-[-2,6-difluorophenoxy]-methyl ketone, reference compound]
- effect of inhibitor on EHDV-TAU-LNCaP-induced cell death (LNCaP cells): partial reduction
- effect on NS3 expression in infected, IL-6-treated cells (LNCaP-JAK1 cells; LNCaP-JAK1, Q-VD-OPh 20 μM, IL-6 5 ng/ml): failed to rescue NS3 expression

Molecule: O=C(O)[C@H](Cc1c[nH]c2ccccc12)N1C(=O)c2ccccc2C1=O [RG108, N-phthalyl-L-tryptophan]
- protection from EHDV-TAU-LNCaP-induced cell death (LNCaP cells; RG108 alone): partial protection
- effect on virus-induced cell death (LNCaP cells; combination of IFN and RG108, relative to untreated infected cells): reduced it to half

Molecule: IFNα
- effect on EHDV-TAU-LNCaP-induced cell death (LNCaP cells; IFN alone): minimal reduction
- effect of treatment on NS3 expression in EHDV-TAU-LNCaP-infected cells (LNCaP-JAK1 cells): abolished NS3 expression

Molecule: Nc1ncn([C@H]2C[C@H](O)[C@@H](CO)O2)c(=O)n1 [5AC, 5-Aza-2′-deoxycytidine]
- effect on infection / virus-induced death (LNCaP cells; combination of 5AC and IFNα, compared to IFNα or 5AC alone): reduced infection to a greater and significant degree

B1: IFNγ: human IFNγ (PeproTech) (protein, UniProt P01579 24-161, looked up)
Interferon gamma: QDPYVKEAENLKKYFNAGHSDVADNGTLFLGILKNWKEESDRKIMQSQIVSFYFKLFKNFKDDQSIQKSVETIKEDMNVKFFNSNKKKRDDFEKLTNYSVTDLNVQRKAIHELIQVMAELSPAAKTGKRKRSQMLFRG
- effect of treatment on NS3 expression in EHDV-TAU-LNCaP-infected cells (LNCaP-JAK1 cells): abrogated NS3 production

— US11484558B2, “Epizootic hemorrhagic disease virus—tel aviv university (EHDV-TAU)—oncolytic virus for treating cancer” (Ramot at Tel-Aviv University Ltd., priority 2017, dated 2022)
